Results reported in PubChem BioAssay AID1963864 (Molecular Pharmacology Branch, DTP, NCI, 2024).

Tested on: KRAS PDC multicell spheroid viability
Test: Anticancer human tumor 521955-158-R6-J3-PDC patient-derived pancreatic carcinoma cell line growth inhibition [KRAS2]
Details: for IC50: curve of first compound; for viability, T/C: stronger effect = lower value
Excerpt: Multicellular complex tumor spheroid response to RAS pathway inhibitors in combination with a targeted agents in patient-derived cell lines with oncogenic KRAS variants from multiple cancer types
A high-throughput screen of multi-cell type tumor spheroids was designed to identify active combinations of targeted small molecules and KRAS pathway inhibitors. Complex spheroids include a stromal component modeled by human endothelial cells (HUVEC) and fibroblasts modeled by human mesenchymal stem cells (MSCs). The concentration ranges selected for each drug and investigational agent were based upon clinically achievable concentrations if the clinical Cmax of the agent was known.
Compounds. The drugs and investigational agents: BI-3406 (NSC825286), BAY-293 (NSC824723), batoprotafib (TNO155; NSC825523), sotorasib (AMG 510; NSC818433), MRTX1257 (NSC819558), elimusertib (BAY 1895344; NSC800525), molibresib (GSK525762; NSC774829), temuterkib (LY3214996; NSC803410), venetoclax (NSC766270), alisertib (NSC759677), olaparib (NSC753686), talazoparib (NSC767125), erdafitinib (NSC781556), ipatasertib (NSC767898), cabozantinib (NSC761068), nintedanib (NSC756659), abemaciclib (NSC768073), docetaxel (NSC628503), trametinib (NSC758246), and sapanisertib (NSC764658) were obtained from the National Cancer Institute (NCI) Developmental Therapeutics Program Chemical Repository. The FDA-approved anticancer drug set is available from the Developmental Therapeutics Program. […] The stock solutions were prepared in dimethyl sulfoxide (DMSO, Sigma-Aldrich, St. Louis, MO, cat. D2650) at 800-fold the tested concentration and stored at -70 degrees C prior to their use. All drugs and investigational agents were tested over a range starting from a high concentration at or near the clinical Cmax and decreasing in half-log increments. If the clinical Cmax for an agent had not been determined, the highest concentration tested was 10 microM.
Cell Culture. All cells were maintained in an incubator at 37 degrees C and 5% CO2 with 95% humidity. The PDC lines were cultured according to standard operating procedures established by the NCI PDMR (https://pdmr.cancer.gov/sops/default.htm). Briefly, all PDCs were thawed and cultured in Matrigel-coated flasks prepared with a working solution of 1X Ham's F-12 nutrient mix, without supplementation (Invitrogen, Waltham, MA, cat. 11765054), 100 U/mL penicillin-streptomycin (Invitrogen, cat. 15140122), and 2.5% Matrigel (Corning Inc., Corning, NY, cat. 354248) for the first three passages. All PDCs were cultured in complete DMEM/F-12 media containing advanced DMEM/F-12 (Invitrogen, cat. 12634028), 4.9% defined fetal bovine serum, heat inactivated (HyClone Laboratories Inc., Logan, UT, cat. SH30070.03HI), 389 ng/mL hydrocortisone (Sigma-Aldrich, cat. H4001), 9.7 ng/mL human EGF recombinant protein (Invitrogen, cat. PHG0313), 23.4 microg/mL adenine (Sigma-Aldrich, cat. A2786), 97.3 U/mL penicillin-streptomycin (Invitrogen, cat. 15140122), 1.9 mM L-glutamine (Invitrogen, cat. 25030081), and 9.7 microM Y-27632 dihydrochloride (Tocris Bioscience, Bristol, United Kingdom, cat. 1254). The PDCs were cultured in complete DMEM/F12 media without 9.7 microM Y-27632 dihydrochloride for at least two passages prior to the screen. The established cell line HOP-62 was cultured in RPMI 1640 medium, HEPES (Invitrogen, cat. 22400105) with 10% defined fetal bovine serum (HyClone Laboratories Inc., cat. SH30070.03) and 2 mM L-glutamine (Invitrogen, cat. 25030081). The pooled donor HUVEC were cultured in endothelial cell growth medium 2 (PromoCell, Heidelberg, Germany, cat. C-22011) and the hMSC were cultured in mesenchymal stem cell growth medium 2 (PromoCell, cat. C-28009). For all experiments, HUVEC and hMSC were used at passages </=5, while the malignant cell lines were used at passages </=15. […]

[1] = second compound 0.1 µM, first compound 0.0316 µM
[2] = second compound 0.1 µM, first compound 0.1 µM
[3] = second compound 0.1 µM, first compound 0.316 µM
[4] = second compound 0.1 µM, first compound 1 µM
[5] = second compound 0.1 µM, first compound 3.16 µM
[6] = second compound 0.1 µM, first compound 10 µM
[7] = second compound 0.316 µM, first compound 0.0316 µM
[8] = second compound 0.316 µM, first compound 0.1 µM
[9] = second compound 0.316 µM, first compound 0.316 µM
[10] = second compound 0.316 µM, first compound 1 µM
[11] = second compound 0.316 µM, first compound 3.16 µM
[12] = second compound 0.316 µM, first compound 10 µM
[13] = second compound 1 µM, first compound 0.0316 µM
[14] = second compound 1 µM, first compound 0.1 µM
[15] = second compound 1 µM, first compound 0.316 µM
[16] = second compound 1 µM, first compound 1 µM
[17] = second compound 1 µM, first compound 3.16 µM
[18] = second compound 1 µM, first compound 10 µM
[19] = second compound 3.16 µM, first compound 0.0316 µM
[20] = second compound 3.16 µM, first compound 0.1 µM
[21] = second compound 3.16 µM, first compound 0.316 µM
[22] = second compound 3.16 µM, first compound 1 µM
[23] = second compound 3.16 µM, first compound 3.16 µM
[24] = second compound 3.16 µM, first compound 10 µM
[25] = second compound 10 µM, first compound 0.0316 µM
[26] = second compound 10 µM, first compound 0.1 µM
[27] = second compound 10 µM, first compound 0.316 µM
[28] = second compound 10 µM, first compound 1 µM
[29] = second compound 10 µM, first compound 3.16 µM
[30] = second compound 10 µM, first compound 10 µM
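Note: drug exposure lasted seven days.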
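Throughout, for viability, T/C: 100% = DMSO vehicle wells and lower means fewer viable cells.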

With `COC(=O)c1ccc2c(C(=Nc3ccc(N(C)C(=O)CN4CCN(C)CC4)cc3)c3ccccc3)c(O)[nH]c2c1` + C=CC(=O)N1CCN(c2nc(=O)n(-c3c(C)ccnc3C(C)C)c3nc(-c4c(O)cccc4F)c(F)cc23)C(C)C1 the IC50 (second compound 0.1 µM) was 4.73 µM, the IC50 (second compound 0.316 µM) was 3.96 µM and the IC50 (second compound 1 µM) was 3.14 µM. For the same compound, the IC50 (second compound 3.16 µM) was 3.84 µM, the IC50 (second compound 10 µM) was 3.77 µM and the viability, T/C [1] was 96.2%. It also gave a viability, T/C [2] of 102%, a viability, T/C [3] of 116% and a viability, T/C [4] of 119%. It also gave a viability, T/C [5] of 76.8%, a viability, T/C [6] of 0.24% and a viability, T/C [7] of 92.8%. For the same compound, the viability, T/C [8] was 108%, the viability, T/C [9] was 120% and the viability, T/C [10] was 128%. It also gave a viability, T/C [11] of 61.9%, a viability, T/C [12] of 0.9% and a viability, T/C [13] of 103%. It also gave a viability, T/C [14] of 110%, a viability, T/C [15] of 119% and a viability, T/C [16] of 128%. It also gave a viability, T/C [17] of 49.6%, a viability, T/C [18] of 3.61% and a viability, T/C [19] of 108%. The viability, T/C [20] was 94.6%, the viability, T/C [21] was 94.2% and the viability, T/C [22] was 123%. The viability, T/C [23] was 59.9%, the viability, T/C [24] was 1.53% and the viability, T/C [25] was 82.5%. The viability, T/C [26] was 83.3%, the viability, T/C [27] was 88.9% and the viability, T/C [28] was 89%. It also gave a viability, T/C [29] of 59% and a viability, T/C [30] of 0.68%.
With `O=C(c1cc(Cc2n[nH]c(=O)c3ccccc23)ccc1F)N1CCN(C(=O)C2CC2)CC1` + C=CC(=O)N1CCN(c2nc(=O)n(-c3c(C)ccnc3C(C)C)c3nc(-c4c(O)cccc4F)c(F)cc23)C(C)C1 the IC50 (second compound 0.1 µM) was greater than 10 µM, the IC50 (second compound 0.316 µM) was greater than 10 µM and the IC50 (second compound 1 µM) was greater than 10 µM. For the same compound, the IC50 (second compound 3.16 µM) was greater than 10 µM, the IC50 (second compound 10 µM) was greater than 10 µM and the viability, T/C [1] was 110%. The viability, T/C [2] was 103%, the viability, T/C [3] was 113% and the viability, T/C [4] was 96.1%. For the same compound, the viability, T/C [5] was 101%, the viability, T/C [6] was 96.2% and the viability, T/C [7] was 118%. It also gave a viability, T/C [8] of 118%, a viability, T/C [9] of 106% and a viability, T/C [10] of 104%. For the same compound, the viability, T/C [11] was 93.8%, the viability, T/C [12] was 111% and the viability, T/C [13] was 118%. For the same compound, the viability, T/C [14] was 114%, the viability, T/C [15] was 110% and the viability, T/C [16] was 99.3%. It also gave a viability, T/C [17] of 99.7%, a viability, T/C [18] of 111% and a viability, T/C [19] of 103%. For the same compound, the viability, T/C [20] was 105%, the viability, T/C [21] was 95.4% and the viability, T/C [22] was 104%. The viability, T/C [23] was 98.2%, the viability, T/C [24] was 81.5% and the viability, T/C [25] was 84.4%. It also gave a viability, T/C [26] of 84.7%, a viability, T/C [27] of 87.1% and a viability, T/C [28] of 84%. The viability, T/C [29] was 84.2% and the viability, T/C [30] was 83.9%.
